Consider one compound from patent US11535754B2, “Silicon containing detectable compounds and uses thereof” (Singular Genomics Systems, Inc., priority 2019, dated 2022).

The data set can be described thus: Absorption maximum (λmax) of the azasiline dyes, from the HPLC / LC-MS absorption profile. Format: physicochemical. The conditions noted are these: absorption profile from HPLC/LC-MS analysis (FIGS. 1A-1B: 100 mM TEAA and ACN); value for compound 4 from initial attempts to quantify the absorption. The procedure:
FIGS. 1A-1B. Absorption profile for compound 2 (FIG. 1A) and compound 3 (FIG. 1B), as described herein: HPLC chromatogram of the reaction mixture with 100 mM triethylammonium acetate (TEAA) and acetonitrile (ACN).
A mixture of 1a (0.155 mmol) and hydrochloric acid (0.053 mL) in absolute ethanol (1.6 mL) was cooled to 0° C., to which a solution of sodium nitrite (12.1 mg in 0.107 mL) in water was added and stirred for 3 hours after which the solid (dark green crystals) was filtered off. It was diluted with ethanol (1 mL) and 0.02 mL of 1N HCl was added to the mixture. The resulting mixture was refluxed for 4 hours. The progress of the reaction was monitored by HPLC using triethylammonium acetate (TEAA) and acetonitrile (ACN) as the mobile phases on reverse phase (RP) C18 column. The formation of the product was confirmed by mass analysis and HPLC analysis based on the wavelength (see FIG. TA). […]
Synthesis of compound 3. […] The reaction mixture was stirred for overnight and the progress of the reaction was monitored by LC-MS analysis to generate compound 3 (λmax 810 nm); see FIG. 1B.
Synthesis of compound 4. […] The reaction mixture was stirred for overnight and the progress of the reaction was monitored by LC-MS analysis to generate and confirm the presence of compound 4.

Consider `CN1CCCc2cc3c(cc21)[Si](C)(C)c1cc2c(cc1=N3)CCC[N+]=2C` [compound 4], for which the “absorption maximum (λmax)” value was “greater than 850 nm”.
